Measured values reported in patent US20130281506A1, “COMBINATION OF A NON-STEROIDAL ANTI-INFLAMMATORY DRUG WITH AN ANTI-HISTAMINIC DRUG INTENDED FOR OPHTHALMIC USE” (ALLERGAN, INC., priority 2012, published 2013).
Structures can show the parent of a compound that is named as a salt.

Experiments:
[1] = tested on: seasonal allergic conjunctivitis; assay: Randomized, multi-centric, open label clinical study: efficacy on signs and symptoms (itching, hyperemia, chemosis, mucous discharge); format: in vivo, human; details: for mean chemosis score / mean cilliary hyperemia score / mean conjunctival hyperemia score / mean episcleral hyperemia score / mean itching score: score 0-4
Text: A randomized, multi-centric geographically, open label study to compare the safety and efficacy of the combination of olopatadine hydrochloride 0.1% and ketorolac tromethamine 0.4% w/v ophthalmic solution with olopatadine hydrochloride 0.1% w/v used twice daily for three weeks in adult patients with seasonal allergic conjunctivitis, was completed. The primary objective of this randomized, multi-centric geographically diverse study was to compare the safety and efficacy of the combination of olopatadine and ketorolac with olopatadine in seasonal allergic conjunctivitis. A combination of olopatadine hydrochloride 0.1% w/v and ketorolac tromethamine 0.4% w/v was compared with olopatadine hydrochloride 0.1% w/v alone in the treatment of patients with seasonal allergic conjunctivitis. The test drug was the combination of olopatadine hydrochloride with ketorolac tromethamine compared to olopatadine hydrochloride 0.1% w/v, as three commercially available brands on the market: Winolap®, Opat® and Olo®. These three commercially available brands, as the comparator drug, were provided to the investigators. Any of the three brands of the comparator drug were prescribed by the investigator to the patients per their choice of availability and cost. The patients administered one drop twice daily in each eye for twenty-one days during three weeks. The patients received study medications as well as comparator drug for the entire period. There were five scheduled visits, with screening periods of thirty days and a treatment period of twenty-one days as per protocol. At the end of each visit physicians also rated tolerance and the patient rated acceptability. The efficacy parameters like itching, hyperemia (cilliary, conjunctival, episcleral), chemosis and mucus discharge were compared between groups and scored. The efficacy of the medications was evaluated by comparing the reduction in efficacy parameters, signs and symptoms of allergic conjunctivitis between the treatment groups, based on the twenty-one day period. The efficacy of the study medications was evaluated by comparing the reduction in signs and symptoms of allergic conjunctivitis between the treatment groups. Reduction in the signs and symptoms of allergic conjunctivitis was based on evaluation of efficacy parameters till the end of twenty-one days. For the improvement of allergic conjunctivitis, symptoms like itching, hyperemia, chemosis and mucous discharge were used. The symptoms of allergic conjunctivitis like itching, hyperemia and chemosis were scored as 0, 1, 2, 3 and 4 and mucous discharge was graded as absent or present. [table] Interpretation: •Minimum score: 0; •Maximum score: 4; the higher the score the more severe will be the symptoms of allergic conjunctivitis. In the report, each symptom is graded based on the severity. Efficacy evaluation has been done for first 100 completed cases. The efficacy parameters like itching, hyperemia (cilliary, conjunctival, episcleral), chemosis and mucus discharge were compared between groups.

[2] = tested on: adult patients with seasonal allergic conjunctivitis; assay: Same clinical study: safety, tolerability and acceptability; format: in vivo, human; details: mild transient, no treatment required; observed immediately after instillation of eye drop
Text: The patients administered one drop twice daily in each eye for twenty-one days during three weeks. The patients received study medications as well as comparator drug for the entire period. There were five scheduled visits, with screening periods of thirty days and a treatment period of twenty-one days as per protocol. At the end of each visit physicians also rated tolerance and the patient rated acceptability.
At the end of the each visit physicians rated tolerance as Excellent (No adverse drug reactions), Good (Mild adverse reaction not requiring other treatment or necessitating drug withdrawal), Fair (Adverse reactions requiring treatment without hospitalization or necessitating drug withdrawal and Poor (Severe or serious reaction requiring hospitalization and withdrawal of drug) and the patient rated acceptability as Good (No untoward incidence), Fair (Mild adverse reaction not interfering day to day activities) and Poor (Adverse reactions affecting regular day to day activities).
The safety of the combination of olopatadine-ketorolac was compared with olopatadin. The safety assessment parameters included the number of patients having adverse events, the types of adverse events, and the number of unexpected, severe or serious adverse events in the two arms.

[3] = tested on: seasonal allergic conjunctivitis and rhinoconjunctivitis; details: fourth week of treatment; p=0.03; cited from earlier work
[4] = visit 3, no statistically significant difference

For `CN(C)CC/C=C1/c2ccccc2COc2ccc(CC(=O)O)cc21` [olopatadine, olopatadine hydrochloride], the mean chemosis score ([1]; baseline) was 1.5±0.99, the “mean cilliary hyperemia score” value ([1]; baseline) was 0.94±0.91 and the “mean conjunctival hyperemia score” value ([1]; baseline) was 2.28±0.83. For the same compound, the “mean episcleral hyperemia score” value ([1]; baseline) was 0.84±0.79, the mean itching score ([1]; baseline, one drop twice daily in each eye) was 3±0.67 and the “complaints of mucus discharge” value ([1]; final scheduled visit) was “all the enrolled patients were free from the complaints of mucus discharge”. For the same compound, the mean chemosis score ([1]; visit 2) was 1.46±0.95, the “mean cilliary hyperemia score” value ([1]; visit 2) was 0.94±0.91 and the “mean conjunctival hyperemia score” value ([1]; visit 2) was 2.2±0.84. The “mean episcleral hyperemia score” value ([1]; visit 2) was 0.84±0.79, the mean itching score ([1]; visit 3 (first week), p=0.012 between groups) was 2±0.60 and the “mean cilliary hyperemia score” value ([1]; visit 3) was 0.62±0.66. For the same compound, the mean chemosis score [1, 4] was 0.92±0.72, the “mean conjunctival hyperemia score” value [1, 4] was 1.38±0.86 and the “mean episcleral hyperemia score” value ([1]; visit 3, p=0.43 printed) was 0.62±0.63. The mean itching score ([1]; visit 4 (second week), p=0.009 between groups) was 1.28±0.67, the “mean conjunctival hyperemia score” value ([1]; visit 4 (second week), p=0.02 between groups) was 0.8±0.60 and the mean chemosis score ([1]; visit 4 (second week), p=0.029 between groups) was 0.54±0.57. For the same compound, the “mean episcleral hyperemia score” value ([1]; visit 4) was 0.36±0.56, the “mean cilliary hyperemia score” value ([1]; visit 4, p=0.06 between groups) was 0.28±0.49 and the mean chemosis score ([1]; visit 5 (third week), p=0.00004 between groups) was 0.3±0.52. The mean itching score ([1]; visit 5 (third week), p=0.00009 between groups) was 0.78±0.58, the “mean conjunctival hyperemia score” value ([1]; visit 5 (third week), p=0.0003 between groups) was 0.5±0.54 and the “mean episcleral hyperemia score” value ([1]; visit 5) was 0.18±0.38. The “mean cilliary hyperemia score” value ([1]; visit 5, p=0.52 between groups) was 0.08±0.34, the “number of patients experiencing an adverse event” value [2] was “three” and the “chemosis compared to placebo” value [3] was “significant decrease”.
